± gives the expanded uncertainty stated by the source.
Key:
[1] = for mass density / viscosity: Liquid; for mass density: Vibrating tube method; for viscosity: 101.33 kPa, Capillary tube (Ostwald / Ubbelohde) method; for surface tension liquid-gas: Ring tensiometer
[2] = molar heat capacity at constant pressure; conditions: 101.33 kPa, Liquid, Small sample (50 mg) DSC

CCCC[n+]1cccc(C)c1.N#C[C-](C#N)C#N [1-butyl-3-methylpyridinium tricyanomethanide]
Conditions	mass density [kg/m3]	molar heat capacity at constant pressure [J/K/mol]	surface tension liquid-gas [mN/m]	viscosity [mPa·s]
[1], 283.15 K	1052.57 ± 1.3	–	–	–
[1], 293.15 K	1045.79 ± 1.3	–	–	–
[1], 295.15 K	–	–	–	51.42 ± 2.2
[1], 296.05 K	–	–	27.7 ± 0.6	–
[1], 298.15 K	–	–	–	43.92 ± 1.9
[1], 303.15 K	1039.12 ± 1.3	–	–	34.87 ± 1.5
[1], 305.75 K	–	–	27.3 ± 0.6	–
[1], 308.15 K	–	–	–	28.22 ± 1.2
[1], 313.15 K	1032.55 ± 1.3	–	–	23.27 ± 0.98
[1], 313.75 K	–	–	26.9 ± 0.6	–
[1], 320.65 K	–	–	26.6 ± 0.6	–
[1], 323.15 K	1026.1 ± 1.3	–	–	16.25 ± 0.68
[1], 329.85 K	–	–	26.3 ± 0.6	–
[1], 333.15 K	1019.76 ± 1.3	–	–	12.19 ± 0.51
[1], 338.15 K	–	–	26 ± 0.6	–
[1], 343.15 K	1013.52 ± 1.3	–	–	9.56 ± 0.4
[1], 346.15 K	–	–	25.5 ± 0.5	–
[1], 353.15 K	1007.34 ± 1.3	–	–	7.54 ± 0.31
[1], 356.15 K	–	–	25.1 ± 0.5	–
[1], 363.15 K	1001.13 ± 1.3	–	–	6.07 ± 0.25
[2], 298 K	–	468 ± 47	–	–
[2], 323 K	–	479 ± 48	–	–

Reference: the NIST ThermoML archive (doi:10.1016/j.fluid.2011.05.002)
